Measurements from patent US20240344241A1, “PROTEINACEOUS MOLECULES AND USES THEREFOR” (THE UNIVERSITY OF QUEENSLAND, priority 2021, published 2024).
Bridge positions count the residues as written; N and C are the ends. Ends that are not written are not given here. Peptide text beside a SMILES is read from it.

Columns and labels:
[1] = target: T1, biotinylated human β-FXIIa (Homo sapiens, UniProt P00748); test: Surface plasmon resonance binding to FXIIa
T1 construct: purchased Molecular Innovations
T1 sequence (P00748 373-615 limits assumed, other chains not shown): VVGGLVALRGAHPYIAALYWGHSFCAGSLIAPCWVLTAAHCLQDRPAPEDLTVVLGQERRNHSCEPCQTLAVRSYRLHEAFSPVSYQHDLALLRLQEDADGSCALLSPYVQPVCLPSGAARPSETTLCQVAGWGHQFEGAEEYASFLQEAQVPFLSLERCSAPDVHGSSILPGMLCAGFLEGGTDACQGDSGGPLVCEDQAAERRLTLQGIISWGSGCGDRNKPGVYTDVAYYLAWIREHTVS
Experimental: Binding kinetics of each peptide towards biotinylated human β-FXIIa (Molecular Innovations) and non-labelled zymogen FXII (Haematologic Technologies) were determined using a Biacore T200 machine (Cytiva). For β-FXIIa binding measurements, the running buffer was HBS-EP+(10 mM HEPES, 150 mM NaCl, 3 mM EDTA and 0.05% (v/v) surfactant P20, pH 7.4). Biotinylated β-FXIIa was immobilized on a Sensor Chip CAP (Cytiva) using Biotin CAPture Reagent (Cytiva). A series of concentrations of each peptide were injected as analyte and the binding kinetics were modelled using a 1:1 binding model. Regeneration of sensor surface was performed after each measurement cycle. For FXII binding measurements, the running buffer was PBST (137 mM NaCl, 2.7 mM KCl, 10 mM Na2HPO4, 1.8 mM KH2PO4, 0.05% Tween-20). Non-labelled FXII was immobilized on a Sensor Chip CM5 (Cytiva) using Amine Coupling Kit (Cytiva), achieving a final immobilization level of 2500 RU. Each peptide was flowed through immobilized FXII at 5 μM for 60 s and allowed dissociation for 150 s.

bovine trypsin = target: T2, bovine trypsin (Bos taurus, UniProt P00760); test: Surface plasmon resonance binding to trypsin
T2 sequence (P00760 24-246): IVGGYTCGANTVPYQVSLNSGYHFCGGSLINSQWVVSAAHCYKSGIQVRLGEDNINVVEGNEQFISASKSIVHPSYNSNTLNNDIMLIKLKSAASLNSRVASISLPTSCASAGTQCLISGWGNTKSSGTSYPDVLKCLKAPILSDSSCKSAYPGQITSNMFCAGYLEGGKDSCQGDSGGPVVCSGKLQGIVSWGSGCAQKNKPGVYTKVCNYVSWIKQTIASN

Human β-FXIIa = target: T3, Human β-FXIIa (Homo sapiens, UniProt P00748); test: FXIIa competitive inhibition assay, colorimetric substrate Ac-QRFR-pNA; type: biochemical
T3 construct: Human β-FXIIa was obtained from Molecular Innovations, together with human FXa, human FXIa, human α-thrombin, and human plasma kallikrein; purchased Molecular Innovations; host or cells: purified from human plasma
T3 sequence (P00748 373-615 limits assumed, other chains not shown): as the sequence (P00748 373-615 limits assumed, other chains not shown) above
Method in brief: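 Assays run three times in duplicate at pH 8.0 (Tris-HCl, NaCl, CaCl2, Triton X-100). Rates of pNA or MCA release after enzyme–inhibitor equilibration at room temperature were fitted by non-linear regression to the Morrison equation for Ki.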

Stability in human serum = test: Stability in human serum
Experimental: Briefly, peptides were incubated at a final concentration of 30 μM in human serum (human male AB serum, Sigma-Aldrich) at 37° C. for 0, 1, 12 and 24 h. The reaction was stopped at designated times, with the serum proteins being denatured by addition of two volumes of acetonitrile (v/v). The samples were then spun at 17,000 g for 10 min and the amount of peptide in the supernatant was quantified using analytical HPLC. The percentage of peptide remaining at 1, 12 and 24 h was calculated using the area of the serum-treated peptide peak from 0 h as 100%.

Human trypsin = target: T4, Human trypsin (Homo sapiens, UniProt P07477); test: Trypsin competitive inhibition assay; type: biochemical
T4 construct: purchased Sigma-Aldrich; host or cells: purified from human tissue
Experimental: (§1) The activity of acyclic and cyclic MCoFx1-5 and analogues thereof was assessed in competitive inhibition assays, as previously described in Swedberg et al. (2016) J Med Chem, 59: 7287-7292. Human β-FXIIa was obtained from Molecular Innovations, together with human FXa, human FXIa, human α-thrombin, and human plasma kallikrein. Human cationic trypsin and human plasmin were obtained from Sigma-Aldrich, and recombinant human matriptase was sourced from R&D Systems. Recombinant human urokinase (uPA) and recombinant human tissue plasminogen activator (tPA) were expressed in Expi293 cells, as previously described in Li et al. (2019) Chembiochem, 20: 46-50. FXIIa inhibition assays were performed in clear, low-binding 96-well plates using 250 μL (final volume) of assay buffer (0.1 M Tris-HCl pH 8.0, 0.1 M NaCl, 10 mM CaCl2 and 0.005% Triton X-100). Inhibitors were serially diluted and incubated with 10 nM FXIIa at room temperature to reach equilibrium. After adding 100 μM Ac-QRFR-pNA substrate (KM=162 μM), enzymatic activity was measured by monitoring release of the pNA moiety using a TECAN infinite M1000 Pro plate reader (A=405 nm, reading interval, 10 s; assay time course, 7 min). Assays were conducted in three times in duplicate. Substrate kinetic constants (Michaelis-Menten) and inhibition constants (Morrison K) were determined by non-linear regression using Prism 7 (GraphPad). Selectivity assays with off-target proteases were performed in a similar way, except that different concentrations of enzyme and substrate were used, as indicated in Table 16. For assays using a fluorescent substrate (peptide-4-methylcoumaryl-7-amide, MCA), black low-binding 96-well plates were used and activity was measured using a TECAN infinite M1000 pro plate reader (λex 360 nm, λem 460 nm, reading interval, 30 s; assay time course, 5-30 min).

Human FXa = target: T5, Human FXa (Homo sapiens, UniProt P00742); test: FXa inhibition assay; type: biochemical
T5 construct: Human β-FXIIa was obtained from Molecular Innovations, together with human FXa, human FXIa, human α-thrombin, and human plasma kallikrein; purchased Molecular Innovations; host or cells: purified from human plasma
T5 sequence (P00742 235-488 limits assumed): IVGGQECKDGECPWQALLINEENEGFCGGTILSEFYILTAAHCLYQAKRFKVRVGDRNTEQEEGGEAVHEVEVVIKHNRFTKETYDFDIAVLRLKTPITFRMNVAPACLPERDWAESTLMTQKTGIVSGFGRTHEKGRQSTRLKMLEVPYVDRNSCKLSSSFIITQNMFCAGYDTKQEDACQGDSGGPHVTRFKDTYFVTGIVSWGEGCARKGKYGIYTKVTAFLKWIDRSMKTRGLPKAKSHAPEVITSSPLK
T5 sequence (P00742 41-179 partner limits assumed): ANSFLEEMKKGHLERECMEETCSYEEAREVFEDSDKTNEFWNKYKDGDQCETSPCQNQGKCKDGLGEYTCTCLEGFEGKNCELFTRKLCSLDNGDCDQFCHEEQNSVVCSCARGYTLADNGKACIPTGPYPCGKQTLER
Experimental: as §1

Human FXIa = target: T6, Human FXIa (Homo sapiens, UniProt P03951); test: FXIa inhibition assay; type: biochemical
T6 construct: Human β-FXIIa was obtained from Molecular Innovations, together with human FXa, human FXIa, human α-thrombin, and human plasma kallikrein; purchased Molecular Innovations; host or cells: purified from human plasma
T6 sequence (P03951 388-625 limits assumed): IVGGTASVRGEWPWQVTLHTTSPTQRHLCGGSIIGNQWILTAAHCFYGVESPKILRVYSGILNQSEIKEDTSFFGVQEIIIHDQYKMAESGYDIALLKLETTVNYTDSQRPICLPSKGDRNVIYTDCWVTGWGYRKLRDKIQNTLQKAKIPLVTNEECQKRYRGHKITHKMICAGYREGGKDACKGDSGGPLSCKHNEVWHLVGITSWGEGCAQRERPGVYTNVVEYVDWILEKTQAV
T6 sequence (P03951 19-387 partner limits assumed): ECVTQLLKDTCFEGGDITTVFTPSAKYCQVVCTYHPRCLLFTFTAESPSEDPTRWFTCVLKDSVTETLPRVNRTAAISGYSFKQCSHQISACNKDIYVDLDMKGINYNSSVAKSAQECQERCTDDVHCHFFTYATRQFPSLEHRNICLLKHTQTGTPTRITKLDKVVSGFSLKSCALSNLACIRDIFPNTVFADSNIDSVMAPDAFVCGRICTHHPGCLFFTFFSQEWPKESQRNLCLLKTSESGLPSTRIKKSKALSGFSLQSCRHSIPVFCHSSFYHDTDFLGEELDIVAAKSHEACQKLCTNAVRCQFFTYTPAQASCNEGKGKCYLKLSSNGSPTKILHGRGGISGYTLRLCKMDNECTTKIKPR
Experimental: as §1

Human thrombin = target: T7, Human thrombin (Homo sapiens, UniProt P00734); test: Thrombin inhibition assay; type: biochemical
T7 construct: Human β-FXIIa was obtained from Molecular Innovations, together with human FXa, human FXIa, human α-thrombin, and human plasma kallikrein; purchased Molecular Innovations; host or cells: purified from human plasma
Experimental: as §1

Human plasma kallikrein = target: T8, Human plasma kallikrein (Homo sapiens, UniProt P03952); test: Plasma kallikrein inhibition assay; type: biochemical
T8 construct: Human β-FXIIa was obtained from Molecular Innovations, together with human FXa, human FXIa, human α-thrombin, and human plasma kallikrein; purchased Molecular Innovations; host or cells: purified from human plasma
T8 sequence (P03952 391-638 limits assumed): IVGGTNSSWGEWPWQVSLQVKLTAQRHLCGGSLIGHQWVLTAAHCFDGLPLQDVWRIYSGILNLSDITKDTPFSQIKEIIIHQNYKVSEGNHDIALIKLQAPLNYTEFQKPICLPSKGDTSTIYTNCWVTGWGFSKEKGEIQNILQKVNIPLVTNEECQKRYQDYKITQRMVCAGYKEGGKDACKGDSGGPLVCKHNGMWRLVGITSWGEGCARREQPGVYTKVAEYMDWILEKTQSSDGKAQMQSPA
T8 sequence (P03952 20-390 partner limits assumed): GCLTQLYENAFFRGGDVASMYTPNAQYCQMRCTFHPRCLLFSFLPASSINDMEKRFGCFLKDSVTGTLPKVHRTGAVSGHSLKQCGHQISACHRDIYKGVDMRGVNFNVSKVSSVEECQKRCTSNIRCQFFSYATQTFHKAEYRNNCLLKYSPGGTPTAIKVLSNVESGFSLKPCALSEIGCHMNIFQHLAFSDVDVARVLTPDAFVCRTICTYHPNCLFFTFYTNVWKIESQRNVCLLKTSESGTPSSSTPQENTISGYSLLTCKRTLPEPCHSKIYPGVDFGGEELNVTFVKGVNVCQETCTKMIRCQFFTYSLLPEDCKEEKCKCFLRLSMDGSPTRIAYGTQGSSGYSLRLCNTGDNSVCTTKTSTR
Experimental: as §1

Human plasmin = target: T9, Human plasmin (Homo sapiens, UniProt P00747); test: Plasmin inhibition assay; type: biochemical
T9 construct: Human cationic trypsin and human plasmin were obtained from Sigma-Aldrich, and recombinant human matriptase was sourced from R&D Systems; purchased Sigma-Aldrich; host or cells: purified from human plasma
T9 sequence (P00747 581-810 limits assumed): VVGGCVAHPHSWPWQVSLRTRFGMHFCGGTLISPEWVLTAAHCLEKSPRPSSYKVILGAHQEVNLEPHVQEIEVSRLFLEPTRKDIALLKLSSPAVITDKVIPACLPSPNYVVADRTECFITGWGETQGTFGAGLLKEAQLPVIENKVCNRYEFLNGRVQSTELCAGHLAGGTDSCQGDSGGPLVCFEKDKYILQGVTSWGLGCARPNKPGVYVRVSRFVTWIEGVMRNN
T9 sequence (P00747 97-580 partner limits assumed): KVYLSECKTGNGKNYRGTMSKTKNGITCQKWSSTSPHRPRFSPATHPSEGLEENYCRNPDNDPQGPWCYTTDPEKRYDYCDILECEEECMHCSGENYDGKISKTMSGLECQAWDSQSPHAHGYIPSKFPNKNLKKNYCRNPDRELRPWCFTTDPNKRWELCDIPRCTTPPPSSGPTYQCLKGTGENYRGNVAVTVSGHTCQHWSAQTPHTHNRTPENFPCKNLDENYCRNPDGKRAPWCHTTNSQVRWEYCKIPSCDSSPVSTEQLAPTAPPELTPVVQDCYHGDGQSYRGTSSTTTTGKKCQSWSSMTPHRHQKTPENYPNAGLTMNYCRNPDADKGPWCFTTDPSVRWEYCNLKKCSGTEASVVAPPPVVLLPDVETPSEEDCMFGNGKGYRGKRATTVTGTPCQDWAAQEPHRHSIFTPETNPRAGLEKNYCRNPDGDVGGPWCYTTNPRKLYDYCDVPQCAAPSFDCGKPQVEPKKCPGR
Experimental: as §1

Rec. human uPA = target: T10, Rec. human uPA (Homo sapiens, UniProt P00749); test: uPA inhibition assay; type: biochemical
T10 construct: made in house; host or cells: Expi293 cells
Experimental: as §1

Rec. human tPA = target: T11, Rec. human tPA (Homo sapiens, UniProt P00750); test: tPA inhibition assay; type: biochemical
T11 construct: made in house; host or cells: Expi293 cells
T11 sequence (P00750 36-562): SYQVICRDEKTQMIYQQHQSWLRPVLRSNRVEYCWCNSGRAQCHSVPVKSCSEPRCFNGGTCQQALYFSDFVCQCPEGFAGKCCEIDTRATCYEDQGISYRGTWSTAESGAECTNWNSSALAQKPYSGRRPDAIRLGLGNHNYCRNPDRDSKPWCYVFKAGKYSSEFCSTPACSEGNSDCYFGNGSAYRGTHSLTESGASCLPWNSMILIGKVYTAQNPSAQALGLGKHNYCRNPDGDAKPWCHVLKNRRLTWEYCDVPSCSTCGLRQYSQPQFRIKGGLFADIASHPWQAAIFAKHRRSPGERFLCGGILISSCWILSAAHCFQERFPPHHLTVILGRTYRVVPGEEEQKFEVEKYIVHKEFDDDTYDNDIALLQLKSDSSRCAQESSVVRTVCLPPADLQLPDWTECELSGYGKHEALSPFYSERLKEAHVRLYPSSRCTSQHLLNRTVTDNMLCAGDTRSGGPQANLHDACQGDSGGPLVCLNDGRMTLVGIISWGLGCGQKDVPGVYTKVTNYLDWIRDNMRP
Experimental: as §1

Rec. human matriptase = target: T12, Rec. human matriptase (Homo sapiens, UniProt Q9Y5Y6); test: Matriptase inhibition assay; type: biochemical
T12 construct: purchased R&D Systems
T12 sequence (Q9Y5Y6 615-855 limits assumed): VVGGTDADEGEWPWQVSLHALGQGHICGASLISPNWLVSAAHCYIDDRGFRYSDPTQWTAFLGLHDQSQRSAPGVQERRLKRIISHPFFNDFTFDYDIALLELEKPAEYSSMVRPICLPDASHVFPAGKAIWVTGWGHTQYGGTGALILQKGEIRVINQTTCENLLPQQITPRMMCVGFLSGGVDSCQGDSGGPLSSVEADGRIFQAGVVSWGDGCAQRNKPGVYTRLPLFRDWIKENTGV
Experimental: as §1

Compound | Kd [1] | Kd (bovine trypsin) | Ki (Human β-FXIIa) | resistance to serum proteases (in words) (Stability in human serum; human serum, 37° C., up to 24 h) | Ki (Human trypsin) | IC50 (Human FXa) | inhibition at 5 µM (Human FXa; read-out: percent inhibition FXa) | IC50 (Human FXIa) | inhibition at 5 µM (Human FXIa; read-out: percent inhibition FXIa) | IC50 (Human thrombin) | inhibition at 5 µM (Human thrombin; read-out: percent inhibition Thrombin) | IC50 (Human plasma kallikrein) | inhibition at 5 µM (Human plasma kallikrein; read-out: percent inhibition Plasma kallikrein) | Ki (Human plasmin) | IC50 (Rec. human uPA) | inhibition at 5 µM (Rec. human uPA; read-out: percent inhibition uPA) | IC50 (Rec. human tPA) | inhibition at 5 µM (Rec. human tPA; read-out: percent inhibition tPA) | Ki (Rec. human matriptase) | time to degradation in human serum (Stability in human serum)
CC[C@H](C)[C@H](NC(=O)CNC(=O)CNC(=O)[C@@H](N)CC(=O)O)C(=O)N[C@H]1CSSC[C@@H]2NC(=O)[C@H](C)NC(=O)CNC(=O)[C@@H]3CCCN3C(=O)[C@@H]3CSSC[C@@H](C(=O)NCC(=O)N[C@@H](CO)C(=O)NCC(=O)N[C@@H](Cc4ccc(O)cc4)C(=O)O)NC(=O)[C@H](Cc4ccccc4)NC(=O)[C@H](CCCNC(=N)N)NC(=O)[C@H]([C@@H](C)O)NC(=O)[C@H](C)NC(=O)[C@H](CCCNC(=N)N)NC(=O)[C@H](CSSC[C@H](NC(=O)[C@H](CC(C)C)NC(=O)[C@H](CCCNC(=N)N)NC(=O)CNC(=O)[C@H]([C@@H](C)CC)NC(=O)[C@H](CCCNC(=N)N)NC(=O)[C@@H]4CCCN4C1=O)C(=O)N[C@@H](CCCNC(=N)N)C(=O)N[C@@H](CCCNC(=N)N)C(=O)N[C@@H](CC(=O)O)C(=O)N[C@@H](CO)C(=O)N[C@@H](CC(=O)O)C(=O)N3)NC(=O)[C@H]([C@@H](C)CC)NC2=O [MCoFx1 acyclic] (H-DGGICPRIGRLCRRDSDCPGACICRATRFCGSGY-OH; disulfide 5-22, 12-24, 18-30) | 1.89 ± 0.04 nM | 59.6 nM | 0.73 ± 0.2 nM | highly resistant to serum proteases | – | – | – | – | – | – | – | – | – | – | – | – | – | – | – | –
CC[C@H](C)[C@@H]1NC(=O)[C@@H]2CSSC[C@@H]3NC(=O)[C@H](C(C)C)NC(=O)CNC(=O)CNC(=O)[C@H](CC(=O)O)NC(=O)[C@H](CO)NC(=O)CNC(=O)[C@H](CO)NC(=O)CNC(=O)[C@@H]4CSSC[C@H](NC(=O)[C@H](CC(=O)O)NC(=O)[C@H](CO)NC(=O)[C@H](CC(=O)O)NC(=O)[C@H](CCCNC(=N)N)NC(=O)[C@H](CCCNC(=N)N)NC(=O)[C@H](CSSC[C@H](NC1=O)C(=O)N[C@@H](CCCNC(=N)N)C(=O)N[C@@H](C)C(=O)N[C@@H]([C@@H](C)O)C(=O)N[C@@H](CCCNC(=N)N)C(=O)N[C@@H](Cc1ccccc1)C(=O)N4)NC(=O)[C@H](CCCCN)NC(=O)[C@H](CCCCN)NC(=O)[C@H](CC(C)C)NC(=O)[C@H]([C@@H](C)CC)NC(=O)[C@H](CCCCN)NC(=O)[C@@H]1CCCN1C3=O)C(=O)N1CCC[C@H]1C(=O)NCC(=O)N[C@@H](C)C(=O)N2 [cMCoTI-fxL5] (cyclo(ACICRATRFCGSGSDGGVCPKILKKCRRDSDCPG); disulfide 2-19, 4-26, 10-32) | – | – | 66 nM | – | 0.08 nM | > 5000 nM | 0% | > 5000 nM | 1% | > 5000 nM | 3% | > 5000 nM | 0% | 31 nM | > 5000 nM | 0% | > 5000 nM | 1% | 17 nM | –
EAIYAAPFAKKK [reference compound] | – | – | – | – | – | – | – | – | – | – | – | – | – | – | – | – | – | – | – | ≤ 1 h
